Assay [1] addresses mGluR5. Kind of assay: functional mGluR5 antagonist assay. In kind it is cell-based. The following applies: for IC50 in functional HTS: identified from the functional HTS.
Assay [2] addresses mGluR5 (Rattus norvegicus, UniProt P31424). As to the kind of experiment: functional mGluR5 antagonist assay. In kind it is cell-based.

From publication PMC3177605 (Bioorganic & medicinal chemistry letters, 2009) come the findings set out here.

Sequence of mGluR5 (P31424 21-1203): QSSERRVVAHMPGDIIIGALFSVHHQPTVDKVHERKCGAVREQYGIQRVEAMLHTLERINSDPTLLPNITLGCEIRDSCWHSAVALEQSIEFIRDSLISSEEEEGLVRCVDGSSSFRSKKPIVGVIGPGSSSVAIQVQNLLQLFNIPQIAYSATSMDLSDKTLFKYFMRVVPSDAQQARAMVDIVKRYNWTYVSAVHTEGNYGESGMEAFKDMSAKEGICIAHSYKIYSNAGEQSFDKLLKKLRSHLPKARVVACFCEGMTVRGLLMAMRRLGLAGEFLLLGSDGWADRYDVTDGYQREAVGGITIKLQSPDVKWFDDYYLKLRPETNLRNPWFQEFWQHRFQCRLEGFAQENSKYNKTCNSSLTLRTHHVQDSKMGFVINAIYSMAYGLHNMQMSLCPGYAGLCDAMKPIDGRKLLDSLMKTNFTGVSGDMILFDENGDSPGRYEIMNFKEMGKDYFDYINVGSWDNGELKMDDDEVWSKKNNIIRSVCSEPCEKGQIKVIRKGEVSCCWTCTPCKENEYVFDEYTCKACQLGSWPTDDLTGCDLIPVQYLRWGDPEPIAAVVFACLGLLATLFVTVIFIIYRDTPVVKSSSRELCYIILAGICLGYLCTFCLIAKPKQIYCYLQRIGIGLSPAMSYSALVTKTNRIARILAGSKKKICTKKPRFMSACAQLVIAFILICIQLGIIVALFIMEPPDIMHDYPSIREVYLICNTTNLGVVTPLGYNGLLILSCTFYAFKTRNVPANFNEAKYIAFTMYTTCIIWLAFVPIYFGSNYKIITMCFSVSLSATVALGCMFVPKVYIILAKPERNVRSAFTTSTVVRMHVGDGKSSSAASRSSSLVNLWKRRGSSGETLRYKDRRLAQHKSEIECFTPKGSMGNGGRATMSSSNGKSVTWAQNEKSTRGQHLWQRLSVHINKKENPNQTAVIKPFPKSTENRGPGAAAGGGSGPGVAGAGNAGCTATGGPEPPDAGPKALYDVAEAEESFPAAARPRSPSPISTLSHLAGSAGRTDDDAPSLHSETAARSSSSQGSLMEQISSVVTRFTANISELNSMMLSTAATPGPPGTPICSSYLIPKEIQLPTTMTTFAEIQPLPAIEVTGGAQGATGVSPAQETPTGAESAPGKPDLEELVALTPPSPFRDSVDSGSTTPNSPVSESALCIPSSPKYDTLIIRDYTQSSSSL
Sequence of mGluR5 (Rattus norvegicus, UniProt P31424) (P31424 21-1203): as above

As to `O=C(N1CCN(c2ccccn2)CC1)C12CC3CC(CC(C3)C1)C2` [Cmpd 11], the “IC50 in functional HTS” value against mGluR5 [1] is listed as “submicromolar”.

Take `O=C(N1CCN(c2ccncc2)CC1)C12CC3CC(CC(C3)C1)C2` [Cmpd 20b]: the “mGluR5 inhibitory activity” value with mGluR5 [1] is “loses all mGluR5 inhibitory activity”.

With `O=C(c1ccco1)N1CCCC2(CCCCC2)C1` [Cmpd 10], on mGluR5 [1], the “IC50 in functional HTS” value is on record as “submicromolar”.

For `Cc1cc(C)c2c(N)c(C(=O)c3ccc(F)cc3)oc2n1` [Cmpd 12, (3-amino-4,6-dimethylfuro[2,3-b]pyridine-2-yl)(4-fluorophenyl)methanone], the half-inhibitory concentration (IC50) (usually the concentration that gives 50% inhibition) with mGluR5 [2] (read-out: mGluR5 IC50, newly synthesized material) stood at 150 nM. In addition, the “% Glu Max” value with mGluR5 [2] (upon resynthesis) is 1.39%.
